Experimental data as given in patent US9340622B2, “Synthetic immunogen useful for generating long lasting immunity and protection against pathogens” (priority 2010, dated 2016).
Read-outs that look alike come from different tables or passages of the source. Ends that are not written are not given here.

Legend:
[1] = test system: CD4 T cells; experiment: Intracellular staining for IFN-γ in CD4 T cells; format: cell-based; details: splenocytes of mice immunized with lipopeptide containing SEQ ID No. 1, cultured 48 h, restimulated 6 h, FIG. 6
Method: FIG. 6. CD4 T cells from mice immunized with immunogen containing SEQ ID No. 1 produced IFN-γ on in vitro peptide restimulation. Mice were immunized with lipopeptide containing SEQ ID No. 1. Splenocytes from the immunized mice were cultured with A) medium; B) Pam2Cys; C) non-lipidated peptide (SEQ ID No. 1); D) lipopeptide (containing SEQ ID No. 1) for 48 h. Cells were restimulated for 6 h and stained for surface CD4 and intracellular for IFN-γ. Representative flow cytometry contours depict IFN-γ producing CD4 T cells and numbers indicate their percentage.
Mice were immunized with the developed immunogenic lipopeptides (20 nmol/animal). Twenty-one days later, a booster dose (10 nmol) was administered. Animals were sacrificed 45 days post booster immunization.
Lymphocytes (2×10^6 cells/ml) were cultured with peptides in triplicates in 96 w plate for 48 h. Cells were pooled and washed twice with wash buffer (PBS containing FBS-1%). Cells were re-stimulated with PMA (50 ng/ml) and ionomycin (1 μg/ml) for 6 h/37° C. and in the last 4 h brefeldin A (10 μg/ml) was added in cultures. After 6 h of activation, cells, were washed twice with staining buffer (BSA-1%, NaN3-0.01% in PBS). […] Finally, cells were fixed in parafolmaldehyde-1% and acquired on FACS Aria II and data was analyzed by FACS DIVA (BD Biosciences, San Jose, Calif.).

[2] = test system: human peripheral blood mononuclear cells; experiment: T cell proliferation of human PBMCs (3H-thymidine incorporation); format: cell-based; details: compared to non-lipidated peptide counterparts, FIG. 9
[3] = test system: Bone marrow derived DCs; experiment: Activation and MHC markers on bone marrow derived DCs; format: cell-based, C57BL/6 mice; details: BMDCs day 7, treated 12 hrs
Method: FIG. 4. Lipidated peptides [immunogens] enhance DC maturation. (A) BALB/c mice were immunized with lipidated peptides [immunogen] and free peptides. Total splenocytes were recovered and in vitro stimulated with the lipidated and free peptides. After 48 hrs of incubation, they were harvested and stained for DC population (CD11c^+/CD40^+). CD11c^+/CD40^+ population indicates mature DCs. Lipidated immunogen constructs were able to induce DC maturation compared to their unlipidated counterparts. (B) Bone marrow derived DCs from C57BL/6 mice were cultured using standard protocol. On day 7 of culture they were treated with free or lipidated peptides for 12 hrs and then the cells were harvested and stained for activation markers. […] (C) On day 7 of culture, bone marrow derived DCs were treated with free or lipidated peptides for 12 hrs. Later on, the cells were harvested and stained for CD74 (immature MHC) and IA^b (mature MHC).

[4] = test system: M. tuberculosis H37Rv; design: species or system Duncan-Hartley guinea pigs; details: guinea pig, in vivo
[5] = test system: M. tuberculosis H37Rv; design: species or system mice; details: mouse, in vivo
[6] = compared to free peptide, FIG. 4C

| Compound | production of IFN-γ in CD4 T cells [1] | proliferation of human PBMCs from sputum positive tuberculosis patient [2] | expression of CD74 (immature MHC) [3, 6] | expression of IA^b (mature MHC) [3, 6] | expression of CD80, CD86, CD40 ([3]; compared to p91 treated cells, FIG. 4B) | Mycobacterial load in lungs (CFU) [4] | Mycobacterial load in lungs (CFU) [5] |
| --- | --- | --- | --- | --- | --- | --- | --- |
| CCCCCCCCCCCCCCCC(=O)OCC(CSC[C@H](N)C(=O)O)OC(=O)CCCCCCCCCCCCCCC (stereo partly drawn) [Pam2Cys, S-[2,3-bis(palmitoyloxy)propyl]cysteine, reference compound] | did not elicit production of IFN-γ |  |  |  |  |  |  |
| L91: immunogen wherein X1=SEQ ID. No. 1 and X2=0; peptide linked via two serines to Pam2Cys (SEFAYGSFVRTVSLPVGADE; also: linked via two serines to Pam2Cys, end not given here; listed as Mycobacterium tuberculosis) | predominant production of IFN-γ | enhanced the proliferation | decrease in expression | enhanced expression | enhanced expression | significantly lower bacterial load in lungs | restricted the growth of mycobacterium significantly |
